Experimental data as given in patent US6632456B1, “Compositions for inhalation” (AstraZeneca AB, priority 1994, dated 2003).
Counter-ions that a name gives are not always drawn.

Columns and labels:
[1] = Enhancement of insulin uptake after powder inhalation in a rat model (blood glucose); format: in vivo, rats; conditions: for enhancement of polypeptide (insulin) absorption in the lung: rat model of Example 2, substance tested as enhancer; for Effect (decrease in blood glucose level): rats, inhaled powder
Description: Each of the compounds listed in Table I was tested for its ability to enhance uptake of a polypeptide (insulin) in a rat model.
Various forms of insulin were employed in the different trials: recombinant human, semisynthetic human or bovine. Each formulation was prepared as above, drying and processing the insulin/enhancer or insulin/enhancer/lactose solution to produce an inhalable powder. The powder was administered to rats by inhalation, and the blood glucose levels of the rats were subsequently monitored as a measure of insulin uptake. These levels were compared to the corresponding values obtained from rats which had inhaled insulin formulations without enhancer.

[2] = system: CaCo-2 epithelial cell monolayer; assay: CaCo-2 epithelial cell monolayer transport assay; format: in vitro ADME; conditions: for transport rate across the monolayer: CaCo-2, up to 16 mM sodium caprate
Description: A standard in vitro assay utilizing an epithelial cell line, CaCo-2 (available through the American Type Culture Collection (ATCC), Rockville, Md., USA), has been developed to assess the ability of various enhancer compounds to promote transport of markers across an epithelial cell monolayer, as a model for the epithelial cell layer which functions in the lung to separate the alveolus from the pulmonary blood supply.
In this assay, the enhancer and polypeptide or other marker are dissolved in aqueous solution at various proportions and/or concentrations, and applied to the apical side of the cell monolayer. After 60 min incubation at 37° C. and 95% RH (relative humidity), the amount of the marker on the basolateral side of the cells is determined, e.g., by use of a radioactively labelled marker.

[3] = design: species or system rats; conditions: rat, in vivo
Description: The mixture was milled in a Retsch mechanical mill to a particle size of mass median diameter 6.7 μm. The resultant powder was administered intratraceally in rats and the uptake of hGH compared with that of a powder, MMD 9.6 μm, comprising hGH and mannitol in the same proportions and prepared in the same way as above.

[4] = Enhancer:Insulin:lactose 4:4:92, vs insulin without enhancer
[5] = Enhancer:Insulin:lactose 25:75:0, vs insulin without enhancer
[6] = Enhancer:Insulin:lactose 2:4:94, vs insulin without enhancer

| Compound | enhancement of polypeptide (insulin) absorption in the lung [1] | Effect (decrease in blood glucose level) [1, 4] | further results |
| --- | --- | --- | --- |
| CCCCCCCCOC1O[C@H](CO)[C@@H](O)[C@H](O)[C@H]1O (some centres unmarked) [Octylglucopyranoside] | some absorption enhancing properties | (+) |  |
| CCCCCCCCCCCCCC(=O)[O-].[Na+] [Sodium myristate] | perform well |  | Effect (decrease in blood glucose level) ([1]; Enhancer:Insulin:lactose 30:70:0, vs insulin without enhancer): + |
| Dimethyl-β-cyclodextrin | absorption enhancing effect |  | Effect (decrease in blood glucose level) ([1]; Enhancer:Insulin:lactose 75:25:0, vs insulin without enhancer): + |
| Lysine caprate | effective |  | Effect (decrease in blood glucose level) ([1]; Enhancer:Insulin:lactose 35:65:0, vs insulin without enhancer): + |
| CCCCCCCCCC(=O)[O-].[Na+] [Sodium caprate] | perform well | + | amount of marker (mannitol) which appears on the basolateral side, insulin added ([2]; CaCo-2 monolayer, 1:3 sodium caprate:insulin by weight (FIG. 2)): This is true; amount of marker (mannitol) which appears on the basolateral side ([2]; CaCo-2 monolayer, 60 min, 37° C., up to 16 mM sodium caprate (FIG. 1)): dependent upon the concentration of enhancer used; Effect (decrease in blood glucose level) ([1]; Enhancer:Insulin:lactose 10:90:0, vs insulin without enhancer): (+); Effect (decrease in blood glucose level) ([1]; Enhancer:Insulin:lactose 17.5:82.5:0, vs insulin without enhancer): (+); Effect (decrease in blood glucose level) [1, 5]: + |
| hGH: Human hormone (hGH, MW 22 kD, source Humatrope from Lilly), 3 parts mixed with sodium caprate (1 part), milled powder |  |  | uptake of hGH [3]: improvement in the uptake |
| C[C@H](CCC(=O)[O-])[C@H]1CC[C@H]2[C@@H]3[C@@H](O)C[C@@H]4C[C@H](O)CC[C@]4(C)[C@H]3CC[C@]12C.[Na+] [Sodium ursodeoxycholate] | effectively enhance polypeptide absorption in the lung | + |  |
| O=C(O)CN(CCN(CC(=O)O)CC(=O)O)CC(=O)O [sodium salt of ethylenediaminetetraacetic acid] | ineffective |  |  |
| CCCCCCCCCCCC(=O)[O-].[Na+] [Sodium laurate] | perform well |  | Effect (decrease in blood glucose level) [1, 5]: (+) |
| CC(=O)OC1CC2(C)C(CC(O)C3C4(C)CCC(O)C(C)C4CCC32C)C1=C(CCCC(C)C)C(=O)NCCS(=O)(=O)O (centres unmarked) [Sodium taurodihydrofusidate] | effectively enhance polypeptide absorption in the lung |  | Effect (decrease in blood glucose level) [1, 6]: + |
| CCCCCCCC/C=C\CCCCCCCC(=O)[O-].[K+] [Potassium oleate] |  | + |  |
| albumin |  |  | transport rate across the monolayer [2]: no increase in transport rate |
| cytochrome C |  |  | transport rate across the monolayer [2]: no increase in transport rate |
| C[C@H](CCC(=O)NCC(=O)[O-])[C@H]1CC[C@H]2[C@@H]3[C@H](O)C[C@@H]4C[C@H](O)CC[C@]4(C)[C@H]3C[C@H](O)[C@]12C.[Na+] [Sodium glycocholate] | effectively enhance polypeptide absorption in the lung | + |  |
| C[C@H](CCC(=O)NCCS(=O)(=O)O)[C@H]1CC[C@H]2[C@@H]3[C@H](O)C[C@@H]4C[C@H](O)CC[C@]4(C)[C@H]3C[C@H](O)[C@]12C [Sodium taurocholate] | effectively enhance polypeptide absorption in the lung | + |  |
| Lysophosphatidylcholine | effective enhancer | + |  |
| CCCCCCCC(=O)[O-].[Na+] [Sodium caprylate] |  |  | Effect (decrease in blood glucose level) [1, 5]: − |
| CCCCCCCCCC(=O)OC[C@H](COP(=O)([O-])OCC[N+](C)(C)C)OC(=O)CCCCCCCCC [Didecanoylphospatidylcholine] |  |  | Effect (decrease in blood glucose level) ([1]; Enhancer:Insulin:lactose 4:4:94, vs insulin without enhancer): − |
| carbonic anhydrase |  |  | transport rate across the monolayer [2]: no increase in transport rate |
| CCCCCCCCCC(=O)[O-].[K+] [Potassium caprate] | effective |  | Effect (decrease in blood glucose level) ([1]; Enhancer:Insulin:lactose 27:73:0, vs insulin without enhancer): + |
| CCCCCCCC(=O)OCC(COP(=O)([O-])OCC[N+](C)(C)C)OC(=O)CCCCCCC (centres unmarked) [Dioctanoylphosphatidylcholine] |  |  | Effect (decrease in blood glucose level) [1, 6]: (+) |
